The structures appear in SMILES notation. Bounds are passed on as bounds.

The record followed here is US20210269440A1 (BETTA PHARMACEUTICALS CO., LTD, priority 2018, published 2021).

T1 sequence (Q9NZQ7 19-238): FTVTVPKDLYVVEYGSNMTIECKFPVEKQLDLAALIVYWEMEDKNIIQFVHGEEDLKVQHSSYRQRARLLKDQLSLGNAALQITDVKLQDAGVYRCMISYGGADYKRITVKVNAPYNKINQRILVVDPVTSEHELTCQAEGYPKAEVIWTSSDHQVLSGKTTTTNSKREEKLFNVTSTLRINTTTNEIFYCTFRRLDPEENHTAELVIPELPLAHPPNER

The first experiment concerns the target T1, PD-1/PD-L1 protein/protein interaction (Homo sapiens, UniProt Q9NZQ7).
T1 construct: Recombinant human PD-L1 protein (19-238) with a His-tag at the C-terminus; purchased AcroBiosystems PD1-H5229 (PD-L1); PD1-H5257 (PD-1)
Kind of experiment: PD-1/PD-L1 homogenous time-resolved fluorescence (HTRF) binding assay.
Settings: not given
As to the method: Resolved Fluorescence (HTRF) Binding Assay
The assays were conducted in a standard black 384-well polystyrene plate with a final volume of […]. Inhibitors were first serially diluted in DMSO and then added to the plate wells before the addition of other reaction components. The final concentration of DMSO in the assay was 1%. The assays were carried out at 25° C. in the PBS buffer (pH 7.4) with 0.05% Tween-20 and 0.1% BSA. […] Plates were centrifuged and proteins were preincubated with inhibitors for 40 min. The incubation was followed by the addition of 10 μL of HTRF detection buffer supplemented with Europium cryptate-labeled anti-human IgG (PerkinElmer-AD0212) specific for Fc and anti-His antibody conjugated to SureLight®—Allophycocyanin (APC, PerkinElmer-AD0059H). After centrifugation, the plate was incubated at 25° C. for 60 min. […] Final concentrations in the assay were […] PD1, 10 nM PD-L1, 1 nM europium anti-human IgG and 20 nM anti-His-Allophycocyanin. IC50 determination was performed by fitting the curve of percent control activity versus the log of the inhibitor concentration using the GraphPad Prism 5.0 software.
For orientation: TR-FRET usually uses a lanthanide donor and a delayed reading to cut background.
A word on the IC50: it is the midpoint of a concentration-inhibition curve. Molecule `Cc1c(Nc2nccc3cc(CN4CCCCC4C(=O)O)cnc23)cccc1-c1cccc(OCCCN2CCCC2)c1C` (stereo not drawn) [Compound 18, 1-((8-((2,2′-dimethyl-3′-(3-(pyrrolidin-1-yl)propoxy)-[1,1′-biphenyl]-3-yl)amino)-1,7-naphthyridin-3-yl)methyl)piperidine-2-carboxylic acid] gave an IC50 of less than 2 nM. On the same count and under the same terms, to `Cc1c(NCCCN2CCOCC2)cccc1-c1cccc(Nc2nccc3cc(CN4CCCCC4C(=O)O)cnc23)c1C` (stereo not drawn) [Compound 48, 1-((8-((2,2′-dimethyl-3′-((3-morpholinopropyl)amino)-[1,1′-biphenyl]-3-yl)amino)-1,7-naphthyridin-3-yl)methyl)piperidine-2-carboxylic acid] belongs 2 to 10 nM. Same read-out and setting: the same measure for `Cc1c(Nc2nccc3cc(CN4CCCCC4C(=O)O)cnc23)cccc1-c1cccc(OCCCN2CCOCC2)c1C#N` (stereo not drawn) [Compound 39, 1-((8-((2′-cyano-2-methyl-3′-(3-morpholinopropoxy)-[1,1′-biphenyl]-3-yl)amino)-1,7-naphthyridin-3-yl)methyl)piperidine-2-carboxylic acid]: 2 to 10 nM; for `Cc1c(Nc2nccc3cc(CN4CCCCC4C(=O)O)cnc23)cccc1-c1cccc(OCCCN2CCOCC2)c1Cl` (stereo not drawn) [Compound 38, 1-((8-((2′-chloro-2-methyl-3′-(3-morpholinopropoxy)-[1,1′-biphenyl]-3-yl)amino)-1,7-naphthyridin-3-yl)methyl)piperidine-2-carboxylic acid]: 2 to 10 nM. `Cc1c(Nc2nccc3cc(CN4CCCCC4C(=O)O)cnc23)cccc1-c1cccc(N(C)C(=O)CCN2CCOCC2)c1C` (stereo not drawn) [Compound 50, 1-((8-((2,2′-dimethyl-3′-(N-methyl-3-morpholinopropanamido)-[1,1′-biphenyl]-3-yl)amino)-1,7-naphthyridin-3-yl)methyl)piperidine-2-carboxylic acid] gave an IC50 greater than 150 nM. Turning to `Cc1c(Nc2nccc3cc(CN4CCCCC4C(=O)O)cnc23)cccc1-c1cccc(OCCCN2CCCCC2)c1C` (stereo not drawn) [Compound 16, 1-((8-((2,2′-dimethyl-3′-(3-(piperidin-1-yl)propoxy)-[1,1′-biphenyl]-3-yl)amino)-1,7-naphthyridin-3-yl)methyl)piperidine-2-carboxylic acid], the IC50 was less than 2 nM. `Cc1c(Nc2nccc3cc(CN4CCCCC4C(=O)O)cnc23)cccc1-c1cccc(OCCCN2CCC(C(=O)O)CC2)c1C` (stereo not drawn) [Compound 30, 1-((8-((3′-(3-(4-carboxypiperidin-1-yl)propoxy)-2,2′-dimethyl-[1,1′-biphenyl]-3-yl)amino)-1,7-naphthyridin-3-yl)methyl)piperidine-2-carboxylic acid] returned an IC50 of 2 to 10 nM. `Cc1c(Nc2nccc3cc(CN4CC(C(=O)O)C4)cnc23)cccc1-c1cccc(OCCCN2CCOCC2)c1C` [Compound 15, 1-((8-((2,2′-dimethyl-3′-(3-morpholinopropoxy)-[1,1′-biphenyl]-3-yl)amino)-1,7-naphthyridin-3-yl)methyl)azetidine-3-carboxylic acid] gave an IC50 of less than 2 nM. In turn, `Cc1c(NC(=O)NCCNCCO)cccc1-c1cccc(Nc2nccc3cc(CN4CCCCC4C(=O)O)cnc23)c1C` (stereo not drawn) [Compound 51, 1-((8-((3′-(3-(2-((2-hydroxyethyl)amino)ethyl)ureido)-2,2′-dimethyl-[1,1′-biphenyl]-3-yl)amino)-1,7-naphthyridin-3-yl)methyl)piperidine-2-carboxylic acid] yielded an IC50 greater than 150 nM. For `Cc1c(Nc2nccc3cc(CN4CCCCC4C(=O)O)cnc23)cccc1-c1cccc(OCCCNS(C)(=O)=O)c1C` (stereo not drawn) [Compound 27, 1-((8-((2,2′-dimethyl-3′-(3-(methylsulfonamido)propoxy)-[1,1′-biphenyl]-3-yl)amino)-1,7-naphthyridin-3-yl)methyl)piperidine-2-carboxylic acid], the IC50 was greater than 150 nM. Same read-out and setting: the same measure for `Cc1c(Nc2nccc3cc(CN4CCCCC4C(=O)O)cnc23)cccc1-c1cccc(OCCCN(C)Cc2ccccc2)c1C` (stereo not drawn) [Compound 22, 1-((8-((3′-(3-(benzyl(methyl)amino)propoxy)-2,2′-dimethyl-[1,1′-biphenyl]-3-yl)amino)-1,7-naphthyridin-3-yl)methyl)piperidine-2-carboxylic acid]: 2 to 10 nM; for `Cc1ccc(-c2cccc(Nc3nccc4cc(CN5CCCCC5C(=O)O)cnc34)c2C)cc1OCCCN1CCOCC1` (stereo not drawn) [Compound 42, 1-((8-((2,4′-dimethyl-3′-(3-morpholinopropoxy)-[1,1′-biphenyl]-3-yl)amino)-1,7-naphthyridin-3-yl)methyl)piperidine-2-carboxylic acid]: 2 to 10 nM; for `Cc1c(Nc2nccc3cc(CN4CCCCC4C(=O)O)cnc23)cccc1-c1cccc(N(C)CCCN2CCOCC2)c1C` (stereo not drawn) [Compound 52, 1-((8-((2,2′-dimethyl-3′-(methyl(3-morpholinopropyl)amino)-[1,1′-biphenyl]-3-yl)amino)-1,7-naphthyridin-3-yl)methyl)piperidine-2-carboxylic acid]: greater than 150 nM.

As to `Cc1c(NC(=O)NCCN2CCOCC2)cccc1-c1cccc(Nc2nccc3cc(CN4CCCCC4C(=O)O)cnc23)c1C` (stereo not drawn) [Compound 53, 1-((8-((2,2′-dimethyl-3′-(3-(2-morpholinoethyl)ureido)-[1,1′-biphenyl]-3-yl)amino)-1,7-naphthyridin-3-yl)methyl)piperidine-2-carboxylic acid], the IC50 was greater than 150 nM. The same measure, in the same setting: to `Cc1c(Nc2nccc3cc(CNCC(=O)O)cnc23)cccc1-c1cccc(OCCCN2CCOCC2)c1Cl` [Compound 45, ((8-((2′-chloro-2-methyl-3′-(3-morpholinopropoxy)-[1,1′-biphenyl]-3-yl)amino)-1,7-naphthyridin-3-yl)methyl)glycine] belongs less than 2 nM.

The molecule `Cc1c(CCCCN2CCOCC2)cccc1-c1cccc(Nc2nccc3cc(CN4CCCCC4C(=O)O)cnc23)c1C` (stereo not drawn) [Compound 58, 1-((8-((2,2′-dimethyl-3′-(4-morpholinobutyl)-[1,1′-biphenyl]-3-yl)amino)-1,7-naphthyridin-3-yl)methyl)piperidine-2-carboxylic acid] yielded an IC50 of 2 to 10 nM. The same measure, in the same setting: the same measure for `Cc1c(/C=C/CCN2CCOCC2)cccc1-c1cccc(Nc2nccc3cc(CN4CCCCC4C(=O)O)cnc23)c1C` (stereo not drawn) [Compound 57, (E)-1-((8-((2,2′-dimethyl-3′-(4-morpholinobut-1-en-1-yl)-[1,1′-biphenyl]-3-yl)amino)-1,7-naphthyridin-3-yl)methyl)piperidine-2-carboxylic acid]: 2 to 10 nM; for `Cc1c(Nc2nccc3cc(CN(C)CC(=O)O)cnc23)cccc1-c1cccc(OCCCN2CCOCC2)c1C` [Compound 11, N-((8-((2,2′-dimethyl-3′-(3-morpholinopropoxy)-[1,1′-biphenyl]-3-yl)amino)-1,7-naphthyridin-3-yl)methyl)-N-methylglycine]: 2 to 10 nM.

The same experiment, now with this note: HTRF, recombinant human PD-1 (Fc tag) / PD-L1 (His-tag), 25° C., PBS pH 7.4; read-out: IC50.
As to `Cc1c(Nc2nccc3cc(CNCC(=O)O)cnc23)cccc1-c1ccccc1` [Compound 2, ((8-((2-methyl-[1,1′-biphenyl]-3-yl)amino)-1,7-naphthyridin-3-yl)methyl)glycine], the IC50 came to 3 nM. On the same count and under the same terms, the same measure for `Cc1c(Nc2nccc3cc(CNCC(=O)O)cnc23)cccc1-c1cccc(OCCCN2CCOCC2)c1C` [Compound 1, ((8-((2,2′-dimethyl-3′-(3-morpholinopropoxy)-[1,1′-biphenyl]-3-yl)amino)-1,7-naphthyridin-3-yl)methyl)glycine]: 0.43 nM.

The experiment is the same for the next values; noted with them: R is the group comprising morpholine.
Regarding `Cc1c(Nc2nccc3cc(CNCC(=O)O)cnc23)cccc1-c1cccc(OCCCN2CCOCC2)c1C` [Compound 1, ((8-((2,2′-dimethyl-3′-(3-morpholinopropoxy)-[1,1′-biphenyl]-3-yl)amino)-1,7-naphthyridin-3-yl)methyl)glycine], the “biological activity (potency), as shown in Table 1” value is reported as “much more potent”.
